From patent US10287300B2 (Merck Patent GmbH, priority 2012, dated 2019)

How the values were obtained:
His-AKT (Full Length) = His-AKT (Full Length) (Homo sapiens (Human), UniProt P31749); experiment: AKT enzyme assay; assay type: biochemical; conditions: 160 uM ATP, 90 min at 25° C.
Description: A TTP Mosquito liquid handling instrument was used to place 125 nl of the appropriate concentration of inhibitor in 100% DMSO (for a dose response curve calculation) into each well of a 384-well plate. To this reaction components were added to a final volume of 12.5 μl: • 0.1 ng/μl His-AKT (Full Length), (Invitrogen, Part # P2999, Lot #641228C). • 160 uM ATP (Fluka, 02055) • 1 mM DTT (Sigma, D0632) • 1 mM MgCl2 (Sigma, M1028) • 1 μM substrate peptide (sequence FITC-AHA-GRPRTSSFAEG-NH2), • synthesized by Tufts Peptide Synthesis service. • 100 mM HEPES pH 7.5 (Calbiochem, 391338) • 0.015% Brij-35 (Sigma, B4184)
The reaction was incubated for 90 min at 25° C., and then stopped by the addition of 70 μl of Stop buffer (100 mM HEPES pH 7.5, 0.015% Brij-35, 10 mM EDTA (Sigma, E7889)).
The plate was read on a Caliper LC 3000 in an Off-Chip mobility shift assay format, using the following parameters for a 12-sipper chip: screening pressure −2.3 psi, upstream voltage −500, and downstream voltage −3000. These conditions caused unphosphorylated substrate and phosphorylated product peptide to resolve as separate peaks allowing direct measurement of percentage of conversion of substrate to product. The percent conversion was plotted against concentration of inhibitor to produce a sigmoidal dose response curve, from which an IC50 was calculated.

[1] = target: P70S6K (T412E mutant, Millipore) (Homo sapiens (Human), UniProt P23443, T412E); experiment: P70S6K enzyme assay; assay type: biochemical; conditions: 24 μM ATP, 90 min at 25° C.
Description: P70S6K inhibitor compounds were diluted and plated in 96 well plates. A reaction mixture including the following components was then added to the compound plate to initiate the enzyme reaction; P70S6K (3 nM, T412E mutant, Millipore) was mixed with 24 μM ATP in an assay buffer containing 100 mM Hepes (pH 7.5), 5 mM MgCl2, 1 mM DTT, 0.015% Brij and 1 μM of the substrate peptide FITC-AHA-AKRRRLSSLRA-OH (derived from the S6 ribosomal protein sequence, FITC=fluorescein isothiocyanate, AHA=6-aminohexanoic acid). The reaction was incubated for 90 min at 25° C., before the addition of 10 mM EDTA to stop the reaction. The proportion of substrate and product (phosphorylated) peptide was analysed on a Caliper Life Sciences Lab Chip 3000, using a pressure of −1.4 psi, and upstream and downstream voltages of −3000 and −700 respectively. Product peaks were resolved before substrate peaks on the resulting chromatograms.

Chain of P70S6K (T412E mutant, Millipore) (P23443 whole entry T412E): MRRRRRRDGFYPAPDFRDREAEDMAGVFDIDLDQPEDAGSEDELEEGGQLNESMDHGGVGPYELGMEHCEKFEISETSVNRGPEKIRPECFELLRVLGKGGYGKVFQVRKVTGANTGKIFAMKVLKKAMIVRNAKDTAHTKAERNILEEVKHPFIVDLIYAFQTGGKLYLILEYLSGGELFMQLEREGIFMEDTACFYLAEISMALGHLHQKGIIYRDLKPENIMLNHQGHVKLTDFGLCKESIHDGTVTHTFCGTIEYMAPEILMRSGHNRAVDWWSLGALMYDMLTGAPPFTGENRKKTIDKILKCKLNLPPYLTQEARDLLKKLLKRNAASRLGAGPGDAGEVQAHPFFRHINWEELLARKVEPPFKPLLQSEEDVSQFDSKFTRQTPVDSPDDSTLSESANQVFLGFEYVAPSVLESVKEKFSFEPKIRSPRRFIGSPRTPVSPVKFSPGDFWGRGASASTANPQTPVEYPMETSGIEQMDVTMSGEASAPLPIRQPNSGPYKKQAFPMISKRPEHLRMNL
Chain of His-AKT (Full Length) (P31749 whole entry): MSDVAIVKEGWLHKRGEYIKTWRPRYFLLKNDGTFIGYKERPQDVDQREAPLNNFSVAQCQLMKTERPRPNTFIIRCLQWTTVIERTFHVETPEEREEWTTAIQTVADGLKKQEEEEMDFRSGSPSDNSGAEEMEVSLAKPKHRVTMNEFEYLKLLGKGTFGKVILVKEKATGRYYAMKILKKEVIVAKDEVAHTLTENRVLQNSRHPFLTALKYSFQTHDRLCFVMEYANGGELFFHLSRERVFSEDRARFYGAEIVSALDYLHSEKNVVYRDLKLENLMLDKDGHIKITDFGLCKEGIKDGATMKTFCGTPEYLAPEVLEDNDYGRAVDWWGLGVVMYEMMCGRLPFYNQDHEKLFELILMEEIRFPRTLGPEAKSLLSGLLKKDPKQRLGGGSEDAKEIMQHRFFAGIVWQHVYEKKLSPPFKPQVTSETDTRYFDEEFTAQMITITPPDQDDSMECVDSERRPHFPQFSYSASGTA

IC50 (His-AKT (Full Length)) [nM]	IC50 [1] [nM]	SMILES
101 to 500	> 1000	CN(C)CC(c1ccc(Cl)cc1)N1CCN(c2ncnc3c2OCCN3)CC1 (stereo not drawn) [Compound A4, {2-(4-Chlorophenyl)-2-[4-(7,8-dihydro-6H-pyrimido[5,4-b][1,4]oxazin-4-yl)-piperazin-1-yl]-ethyl}-dimethylamine]
101 to 500	> 1000	CN(C)CC(c1ccc(C(F)(F)F)cc1)N1CCN(c2ncnc3c2OCCN3)CC1 (stereo not drawn) [Compound A5, [2-[4-(7,8-Dihydro-6H-pyrimido[5,4-b][1,4]oxazin-4-yl)-piperazin-1-yl]-2-(4-trifluoromethylphenyl)-ethyl]-dimethylamine]
101 to 500	101 to 500	CN(C)CC(c1ccc(C(F)(F)F)cc1)N1CCN(c2ncnc3c2CCN3)CC1 (stereo not drawn) [Compound A6, [2-[4-(6,7-Dihydro-5H-pyrrolo[2,3-d]pyrimidin-4-yl)-piperazin-1-yl]-2-(4-trifluoromethylphenyl)-ethyl]-dimethylamine]
101 to 500	101 to 500	CN(C)CC(c1ccc(Cl)cc1)N1CCN(c2ncnc3c2CCN3)CC1 (stereo not drawn) [Compound A7, {2-(4-Chlorophenyl)-2-[4-(6,7-dihydro-5H-pyrrolo[2,3-d]pyrimidin-4-yl)-piperazin-1-yl]-ethyl}-dimethylamine]
25 to 100	101 to 500	CN(C)CC(c1ccc(Cl)cc1)N1CCN(c2ncnc3c2CCCN3)CC1 (stereo not drawn) [Compound A8, {2-(4-Chlorophenyl)-2-[4-(5,6,7,8-tetrahydro-pyrido[2,3-d]pyrimidin-4-yl)-piperazin-1-yl]-ethyl}-dimethylamine]
25 to 100	25 to 100	CN(C)CC(c1ccc(C(F)(F)F)cc1)N1CCN(c2ncnc3c2CCCN3)CC1 (stereo not drawn) [Compound A9, Dimethyl-[2-[4-(5,6,7,8-tetrahydro-pyrido[2,3-d]pyrimidin-4-yl)-piperazin-1-yl]-2-(4-trifluoromethyl-phenyl)-ethyl]-amine]
101 to 500	501 to 1000	NCC(c1ccc(C(F)(F)F)cc1)N1CCN(c2ncnc3c2OCCN3)CC1 (stereo not drawn) [Compound A10, 2-[4-(7,8-Dihydro-6H-pyrimido[5,4-b][1,4]oxazin-4-yl)-piperazin-1-yl]-2-(4-trifluoromethylphenyl)-ethylamine]
101 to 500	501 to 1000	NCC(c1ccc(Cl)cc1)N1CCN(c2ncnc3c2OCCN3)CC1 (stereo not drawn) [Compound A11, 2-(4-Chlorophenyl)-2-[4-(7,8-dihydro-6H-pyrimido[5,4-b][1,4]oxazin-4-yl)-piperazin-1-yl]-ethylamine]
101 to 500	501 to 1000	CN(C)CC(c1ccc(C(F)(F)F)c(F)c1)N1CCN(c2ncnc3c2OCCN3)CC1 (stereo not drawn) [Compound A12, [2-[4-(7,8-Dihydro-6H-pyrimido[5,4-b][1,4]oxazin-4-yl)-piperazin-1-yl]-2-(3-fluoro-4-trifluoromethylphenyl)-ethyl]-dimethylamine]
101 to 500	25 to 100	NCC(c1ccc(Cl)cc1)N1CCN(c2ncnc3c2CCN3)CC1 (stereo not drawn) [Compound A13, 2-(4-Chloro-phenyl)-2-[4-(6,7-dihydro-5H-pyrrolo[2,3-d]pyrimidin-4-yl)-piperazin-1-yl]-ethylamine]
501 to 1000	501 to 1000	NCC(c1ccc(F)cc1)N1CCN(c2ncnc3c2CCN3)CC1 (stereo not drawn) [Compound A14, 2-[4-(6,7-Dihydro-5H-pyrrolo[2,3-d]pyrimidin-4-yl)-piperazin-1-yl]-2-(4-fluorophenyl)-ethylamine]
101 to 500	101 to 500	CN(C)CC(c1ccc(Cl)c(F)c1)N1CCN(c2ncnc3c2CCN3)CC1 (stereo not drawn) [Compound A15, {2-(4-Chloro-3-fluoro-phenyl)-2-[4-(6,7-dihydro-5H-pyrrolo[2,3-d]pyrimidin-4-yl)-piperazin-1-yl]ethyl}-dimethylamine]
25 to 100	25 to 100	NCC(c1ccc(C(F)(F)F)cc1)N1CCN(c2ncnc3c2CCCN3)CC1 (stereo not drawn) [Compound A16, 2-[4-(5,6,7,8-Tetrahydro-pyrido[2,3-d]pyrimidin-4-yl)-piperazin-1-yl]-2-(4-trifluoromethyl-phenyl)-ethylamine]
25 to 100	101 to 500	NCC(c1ccc(Cl)cc1)N1CCN(c2ncnc3c2CCCN3)CC1 (stereo not drawn) [Compound A17, 2-(4-Chloro-phenyl)-2-[4-(5,6,7,8-tetrahydro-pyrido[2,3-d]pyrimidin-4-yl)-piperazin-1-yl]-ethylamine]
25 to 100	101 to 500	CN(C)CC(c1ccc(Cl)c(F)c1)N1CCN(c2ncnc3c2CCCN3)CC1 (stereo not drawn) [Compound A18, {2-(4-Chloro-3-fluoro-phenyl)-2-[4-(5,6,7,8-tetrahydro-pyrido[2,3-d]pyrimidin-4-yl)-piperazin-1-yl]-ethyl}-dimethylamine]
25 to 100	25 to 100	CN(C)CC(c1ccc(C(F)(F)F)c(F)c1)N1CCN(c2ncnc3c2CCCN3)CC1 (stereo not drawn) [Compound A19, {2-(3-Fluoro-4-trifluoromethyl-phenyl)-2-[4-(5,6,7,8-tetrahydro-pyrido[2,3-d]pyrimidin-4-yl)-piperazin-1-yl]-ethyl}-dimethylamine]
25 to 100	101 to 500	CN(C)CC(c1ccc(C(F)(F)F)c(F)c1)N1CCN(c2ncnc3c2CCN3)CC1 (stereo not drawn) [Compound A20, [2-[4-(6,7-Dihydro-5H-pyrrolo[2,3-d]pyrimidin-4-yl)-piperazin-1-yl]-2-(3-fluoro-4-trifluoromethyl-phenyl)-ethyl]-dimethylamine]
501 to 1000	> 1000	NCC(c1ccc(F)cc1)N1CCN(c2ncnc3c2CCCN3)CC1 (stereo not drawn) [Compound A21, 2-(4-Fluoro-phenyl)-2-[4-(5,6,7,8-tetrahydro-pyrido[2,3-d]pyrimidin-4-yl)-piperazin-1-yl]-ethylamine]
25 to 100	101 to 500	NCC(c1ccc(C(F)(F)F)cc1)C1CCN(c2ncnc3c2CCCN3)CC1 (stereo not drawn) [Compound A22, 2-[1-(5,6,7,8-Tetrahydro-pyrido[2,3-d]pyrimidin-4-yl)-piperidin-4-yl]-2-(4-trifluoromethyl-phenyl)-ethylamine]
> 1000	> 1000	NCC(c1ccc(C(F)(F)F)cc1)C1CCN(c2ncnc3c2OCCN3)CC1 (stereo not drawn) [Compound A23, 2-[1-(7,8-Dihydro-6H-pyrimido[5,4-b][1,4]oxazin-4-yl)-piperidin-4-yl]-2-(4-trifluoromethyl-phenyl)-ethylamine]
> 1000	> 1000	CN(C)CC(c1ccc(F)cc1)N1CCN(c2ncnc3c2NC(=O)CN3)CC1 (stereo not drawn) [Compound A24, 4-{4-[2-dimethylamino-1-(4-fluoro-phenyl)-ethyl]-piperazin-1-yl}-7,8-dihydro-5H-pteridin-6-one]
> 1000	> 1000	CN(C)CC(c1cccc(F)c1)N1CCN(c2ncnc3c2NC(=O)CN3)CC1 (stereo not drawn) [Compound A25, 4-{4-[2-dimethylamino-1-(3-fluoro-phenyl)-ethyl]-piperazin-1-yl}-7,8-dihydro-5H-pteridin-6-one]
101 to 500	501 to 1000	CN(C)CC(c1ccc(Cl)cc1)N1CCN(c2ncnc3c2NC(=O)CN3)CC1 (stereo not drawn) [Compound A26, 4-{4-[2-dimethylamino-1-(4-chloro-phenyl)-ethyl]-piperazin-1-yl}-7,8-dihydro-5H-pteridin-6-one]
> 1000	> 1000	CN(C)CC(c1cccc(Cl)c1)N1CCN(c2ncnc3c2NC(=O)CN3)CC1 (stereo not drawn) [Compound A27, 4-{4-[2-dimethylamino-1-(3-chloro-phenyl)-ethyl]-piperazin-1-yl}-7,8-dihydro-5H-pteridin-6-one]

SMILES	IC50 (His-AKT (Full Length)) [nM]	IC50 [1] [nM]
NCC(c1ccc(C(F)(F)F)cc1)C1CCN(c2ccnc3c2CCCN3)CC1 (stereo not drawn) [Compound A1, 2-(1-(5,6,7,8-tetrahydro-1,8-naphthyridin-4-yl)piperidin-4-yl)-2-(4-(trifluoromethyl)phenyl)ethanamine]	101 to 500	25 to 100
NCC(c1ccc(C(F)(F)F)cc1)C1CCN(c2ccnc3c2CCN3)CC1 (stereo not drawn) [Compound A2, 2-(1-(2,3-dihydro-1H-pyrrolo[2,3-b]pyridin-4-yl)piperidin-4-yl)-2-(4-(trifluoro-methyl)phenyl)ethanamine]	25 to 100	25 to 100
NCC(c1ccc(C(F)(F)F)cc1)C1CCN(c2ccnc3c2CCC3)CC1 (stereo not drawn) [Compound A3, 2-(1-(6,7-dihydro-5H-cyclopenta[b]pyridin-4-yl)piperidin-4-yl)-2-(4-(trifluoromethyl)phenyl)ethanamine]	> 1000	> 1000
